Earlier results as cited in US20240180994A1 (priority 2021, published 2024).

Tests used:
[1] = molecular target: SARS-CoV-2 protease 3CL pro (Severe acute respiratory syndrome coronavirus 2, UniProt P0DTD1)
[2] = test system: HIV-luc/SARS pseudotyped virus; conditions: read-out: effective dose at 50% of inhibition (EC50%)
cathepsin L = cathepsin L (Homo sapiens, UniProt P07711)
[3] = molecular target: SARS-CoV-2 membrane (M) protein (Severe acute respiratory syndrome coronavirus 2, UniProt P0DTC5); conditions: modeling studies
TNF-α, IL-6 and IL-1β = conditions: daily oral 10-30 mg/kg for 4 weeks, aged rats
TNF-α = conditions: mouse, in vivo
[4] = test system: TNF-α, IL-1β, MAPKs (p38); conditions: 100 mg/kg, spinal cord injury models

In the case of `O=c1c(O)c(-c2ccc(O)cc2)oc2cc(O)cc(O)c12` [Kaempferol], the IC50 [1] is given as 116 µM.

For `O=c1cc(-c2ccc(O)c(O)c2)oc2cc(O)cc(O)c12` [Luteolin], the EC50 [2] is given as 9.02 µM, the EC50 (wild-type SARS-CoV; read-out: EC50% inhibition of cytopathic effect, wild-type SARS-CoV, MTT assay) is given as 10.6 µM and the “EC50 values times less than cytotoxicity on the cells in vitro” value (wild-type SARS-CoV; relates to both EC50 values of luteolin) is given as 15 times.

In the case of `O=c1c(O)c(-c2ccc(O)c(O)c2)oc2cc(O)cc(O)c12` [Quercetin], the “cathepsin L inhibition” value (cathepsin L) is listed as “inhibit cathepsin L”.

For `O=C(O)/C=C/c1ccc(O)c(O)c1` [caffeic acid], the “affinity with M protein” value [3] is listed as “higher affinity with the M protein”.

For `CC(/C=C/C=C(\C)C(=O)O[C@@H]1O[C@H](CO[C@@H]2O[C@H](CO)[C@@H](O)[C@H](O)[C@H]2O)[C@@H](O)[C@H](O)[C@H]1O)=C\C=C\C=C(C)\C=C\C=C(/C)C(=O)O[C@@H]1O[C@H](CO[C@@H]2O[C@H](CO)[C@@H](O)[C@H](O)[C@H]2O)[C@@H](O)[C@H](O)[C@H]1O` [crocin], the “pro-inflammatory cytokines in renal tissue and serum” value (TNF-α, IL-6 and IL-1β) is listed as “significantly reduced pro-inflammatory cytokines, TNF-α, IL-6 and IL-1β”.

For `COc1cc(/C=C/C(=O)O)ccc1O` [ferulic acid], the “affinity with M protein” value [3] is listed as “higher affinity with the M protein”.

For `COc1ccc([C@@H]2CC(=O)c3c(O)cc(O[C@@H]4O[C@H](CO[C@@H]5O[C@@H](C)[C@H](O)[C@@H](O)[C@H]5O)[C@@H](O)[C@H](O)[C@H]4O)cc3O2)cc1O` [hesperidin], the “TNF-α in LPS-treated mice” value (TNF-α) is given as “decease TNF-α in mice treated with LPS”.

For `CC1=C(C=O)C(C)(C)CC=C1` [safranal], the “expression of inflammatory cytokines” value [4] is given as “decreased the expression of the inflammatory cytokines TNF-α, IL-1β”.
